# Data from PubChem BioAssay AID810 (The Scripps Research Institute Molecular Screening Center, 2007).
# The source made the active and inactive calls. The rule behind the calls is not given here.
# Biological target: Focal adhesion kinase 1 (Homo sapiens) (UniProt Q05397)
# Assay: FAK kinase inhibitor potency, dose response, biochemical (AID 810)
# Settings: Recombinant FAK kinase activity inhibition assay
# Focal adhesion kinase 1 (Homo sapiens), sequence (Q05397 whole entry, looked up): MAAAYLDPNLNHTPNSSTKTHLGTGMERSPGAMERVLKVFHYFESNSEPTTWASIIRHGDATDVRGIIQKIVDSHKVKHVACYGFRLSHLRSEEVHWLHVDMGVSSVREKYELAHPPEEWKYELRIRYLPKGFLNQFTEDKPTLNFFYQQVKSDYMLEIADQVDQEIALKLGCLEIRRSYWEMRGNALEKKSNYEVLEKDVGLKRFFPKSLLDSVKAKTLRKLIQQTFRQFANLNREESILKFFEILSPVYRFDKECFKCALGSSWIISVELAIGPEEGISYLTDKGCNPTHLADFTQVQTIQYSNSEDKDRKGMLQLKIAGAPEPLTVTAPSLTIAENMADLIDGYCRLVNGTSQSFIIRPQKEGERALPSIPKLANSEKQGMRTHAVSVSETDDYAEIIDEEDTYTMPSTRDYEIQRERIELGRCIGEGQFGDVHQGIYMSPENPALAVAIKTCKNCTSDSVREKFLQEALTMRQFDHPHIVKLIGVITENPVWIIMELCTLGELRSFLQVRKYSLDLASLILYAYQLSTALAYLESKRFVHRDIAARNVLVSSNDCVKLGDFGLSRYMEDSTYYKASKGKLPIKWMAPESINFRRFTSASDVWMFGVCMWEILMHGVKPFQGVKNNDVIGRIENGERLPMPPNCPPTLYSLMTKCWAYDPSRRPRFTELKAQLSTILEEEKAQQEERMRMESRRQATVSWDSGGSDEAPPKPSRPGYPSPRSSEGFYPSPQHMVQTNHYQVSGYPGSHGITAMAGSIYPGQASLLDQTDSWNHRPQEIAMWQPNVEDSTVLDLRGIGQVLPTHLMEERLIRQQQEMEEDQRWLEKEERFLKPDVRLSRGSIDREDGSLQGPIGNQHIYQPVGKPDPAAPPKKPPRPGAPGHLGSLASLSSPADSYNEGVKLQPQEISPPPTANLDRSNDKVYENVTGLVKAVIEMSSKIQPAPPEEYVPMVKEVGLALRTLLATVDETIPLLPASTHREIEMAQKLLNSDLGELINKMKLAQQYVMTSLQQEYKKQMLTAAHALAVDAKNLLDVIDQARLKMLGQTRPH
row,IC50,SMILES
1,> 70 µM (inactive),CCOCCOC(=O)C1=C(C)NC2=C(C(=O)CC(c3cccs3)C2)C1c1ccsc1 (stereo unspecified)
2,> 70 µM (inactive),COCCOC(=O)C1=C(C)NC2=C(C(=O)CC(c3cccs3)C2)C1c1ccsc1 (stereo unspecified)
3,> 70 µM (inactive),COC(=O)C1=C(C)NC2=C(C(=O)CC(c3cccs3)C2)C1c1ccsc1 (stereo unspecified)
4,> 70 µM (inactive),CCOC(=O)c1sc2c(c1C)C(c1cccs1)C1=C(CCCC1=O)N2 (stereo unspecified)
5,> 70 µM (inactive),CCOC(=O)C1=C(c2ccccc2)OC(N)=C(C#N)C1c1cccs1 (stereo unspecified)

# Continued, compound first:
row,SMILES,IC50
1,O=c1c(/C=N/O)c(Nc2ccccc2)nc2ccccn12,inactive
2,COc1cccc(CN2CC(O)=C(c3nc(-c4ccc(Cl)cc4)cs3)C2=N)c1,inactive
3,CCOC(=O)C1=C(c2ccccc2)OC(N)=C(C#N)C1C1CCCCC1 (stereo unspecified),> 70 µM (inactive)
4,N#Cc1ccccc1/C=N/Nc1nc(-c2ccccc2)c2cc(Cl)ccc2n1,inactive
5,Cc1nn2c(c1-c1ccccc1)NC1=C(C(=O)CCC1)C2c1ccccc1 (stereo unspecified),> 70 µM (inactive)
6,O=C1C(c2ccnc3ccccc23)=C(O)c2ccccc21,5.64 µM
7,O=[N+]([O-])c1cc(/C=N\Nc2nccs2)ccc1O,5.82 µM
8,CCOC(=O)c1cccc2c1-c1ccccc1/C2=N/O,inactive
9,COc1cc(N=Cc2c(O)[nH]c3ccccc23)cc(OC)c1OC,3.13 µM
10,COC(=O)c1cccc2c1-c1ccccc1/C2=N/O,9.43 µM
11,CN1CCc2c(sc3ncn4nc(-c5ccccc5O)nc4c23)C1,inactive
